Here are results for 13 compounds from BigSolDB 2.1.

As usually defined, the solubility (mole fraction) is solubility expressed as the solute's share of all molecules.

The conditions of one series: in water, 293.15 K.
`Cc1cc(N)ccc1S(=O)(=O)Nc1ccc(Cl)cc1` returned a solubility (mole fraction) of 4.79e-07.

Consider `Cc1cc(N)ccc1S(=O)(=O)Nc1ccccc1Cl`, for which the solubility (mole fraction) was found to be 1.39e-07.

Consider `Nc1ccc(S(=O)(=O)Nc2cc(Cl)ccc2Cl)cc1`, for which the solubility (mole fraction) came to 6.12e-07.

`Cc1cc(Cl)ccc1NS(=O)(=O)c1ccc(N)cc1` gave a solubility (mole fraction) of 1.25e-06.

In the case of `Cc1ccc(NS(=O)(=O)c2ccc(N)cc2)cc1Cl`, the solubility (mole fraction) amounted to 1.26e-07.

`Nc1ccc(S(=O)(=O)Nc2cc(Cl)c(Cl)cc2Cl)cc1` came in with a solubility (mole fraction) of 2.22e-07.

In the case of `Nc1ccc(S(=O)(=O)Nc2ccc(Cl)cc2)c(Cl)c1`, the solubility (mole fraction) came out at 4.05e-07.

In turn, `Nc1ccc(S(=O)(=O)Nc2ccc(Cl)cc2)cc1` displayed a solubility (mole fraction) of 9.2e-07.

Regarding `Nc1ccc(S(=O)(=O)Nc2ccc(Cl)c(Cl)c2)cc1`, the solubility (mole fraction) worked out at 1.67e-07.

Turning to `Cc1cc(N)ccc1S(=O)(=O)Nc1ccccc1[N+](=O)[O-]`, the solubility (mole fraction) is 4.41e-07.

Take `Nc1ccc(S(=O)(=O)Nc2ccccc2Cl)c(Cl)c1`: the solubility (mole fraction) came to 1.05e-07.

The same series, now with this note: in water, 295.15 K.
With `Cc1ccc(Cl)cc1NS(=O)(=O)c1ccc(N)cc1`, the solubility (mole fraction) is 6.16e-07.

The compound `Cc1ccc(NS(=O)(=O)c2ccc(N)cc2)c(Cl)c1` came in with a solubility (mole fraction) of 7.06e-07.

The same series, now with this note: in water, 298.15 K.
Compound `Cc1cc(N)ccc1S(=O)(=O)Nc1ccc(Cl)cc1` came in with a solubility (mole fraction) of 6.71e-07.

For `Cc1cc(N)ccc1S(=O)(=O)Nc1ccccc1Cl`, the solubility (mole fraction) stood at 1.57e-07.

In the case of `Nc1ccc(S(=O)(=O)Nc2cc(Cl)ccc2Cl)cc1`, the solubility (mole fraction) was found to be 7.25e-07.

`Cc1cc(Cl)ccc1NS(=O)(=O)c1ccc(N)cc1` showed a solubility (mole fraction) of 1.61e-06.

For `Cc1ccc(Cl)cc1NS(=O)(=O)c1ccc(N)cc1`, the solubility (mole fraction) stood at 7.72e-07.

The compound `Cc1ccc(NS(=O)(=O)c2ccc(N)cc2)cc1Cl` came in with a solubility (mole fraction) of 1.53e-07.

In turn, `Nc1ccc(S(=O)(=O)Nc2cc(Cl)c(Cl)cc2Cl)cc1` registered a solubility (mole fraction) of 2.51e-07.

In turn, `Cc1ccc(NS(=O)(=O)c2ccc(N)cc2)c(Cl)c1` had a solubility (mole fraction) of 7.65e-07.

In turn, `Nc1ccc(S(=O)(=O)Nc2ccc(Cl)cc2)c(Cl)c1` yielded a solubility (mole fraction) of 4.72e-07.

Take `Nc1ccc(S(=O)(=O)Nc2ccc(Cl)cc2)cc1`: the solubility (mole fraction) was found to be 1.19e-06.

In turn, `Nc1ccc(S(=O)(=O)Nc2ccc(Cl)c(Cl)c2)cc1` yielded a solubility (mole fraction) of 2.05e-07.

Turning to `Cc1cc(N)ccc1S(=O)(=O)Nc1ccccc1[N+](=O)[O-]`, the solubility (mole fraction) turned out to be 5.17e-07.

Consider `Nc1ccc(S(=O)(=O)Nc2ccccc2Cl)c(Cl)c1`, for which the solubility (mole fraction) was 1.19e-07.

Still in this series, the particulars now being: in water, 303.15 K.
As to `Cc1cc(N)ccc1S(=O)(=O)Nc1ccc(Cl)cc1`, the solubility (mole fraction) amounted to 9.04e-07.

In turn, `Cc1cc(N)ccc1S(=O)(=O)Nc1ccccc1Cl` registered a solubility (mole fraction) of 1.74e-07.

Turning to `Nc1ccc(S(=O)(=O)Nc2cc(Cl)ccc2Cl)cc1`, the solubility (mole fraction) turned out to be 8.98e-07.

`Cc1cc(Cl)ccc1NS(=O)(=O)c1ccc(N)cc1` registered a solubility (mole fraction) of 2.11e-06.

On to `Cc1ccc(Cl)cc1NS(=O)(=O)c1ccc(N)cc1`, for which the solubility (mole fraction) was 1.03e-06.

In turn, `Cc1ccc(NS(=O)(=O)c2ccc(N)cc2)cc1Cl` returned a solubility (mole fraction) of 1.79e-07.

In turn, `Nc1ccc(S(=O)(=O)Nc2cc(Cl)c(Cl)cc2Cl)cc1` registered a solubility (mole fraction) of 2.74e-07.

`Cc1ccc(NS(=O)(=O)c2ccc(N)cc2)c(Cl)c1` came in with a solubility (mole fraction) of 9.36e-07.

`Nc1ccc(S(=O)(=O)Nc2ccc(Cl)cc2)c(Cl)c1` had a solubility (mole fraction) of 5.62e-07.

Take `Nc1ccc(S(=O)(=O)Nc2ccc(Cl)cc2)cc1`: the solubility (mole fraction) was found to be 1.51e-06.

As to `Nc1ccc(S(=O)(=O)Nc2ccc(Cl)c(Cl)c2)cc1`, the solubility (mole fraction) was 2.48e-07.

For the compound `Cc1cc(N)ccc1S(=O)(=O)Nc1ccccc1[N+](=O)[O-]`, the solubility (mole fraction) came out at 5.79e-07.

On to `Nc1ccc(S(=O)(=O)Nc2ccccc2Cl)c(Cl)c1`, for which the solubility (mole fraction) was determined as 1.35e-07.

Staying with this series, now noted: in water, 310.15 K.
For `Cc1cc(N)ccc1S(=O)(=O)Nc1ccc(Cl)cc1`, the solubility (mole fraction) was 1.35e-06.

`Cc1cc(N)ccc1S(=O)(=O)Nc1ccccc1Cl` displayed a solubility (mole fraction) of 2.07e-07.

In turn, `Nc1ccc(S(=O)(=O)Nc2cc(Cl)ccc2Cl)cc1` yielded a solubility (mole fraction) of 1.03e-06.

Take `Cc1cc(Cl)ccc1NS(=O)(=O)c1ccc(N)cc1`: the solubility (mole fraction) turned out to be 3.08e-06.

`Cc1ccc(Cl)cc1NS(=O)(=O)c1ccc(N)cc1` had a solubility (mole fraction) of 1.51e-06.

For the compound `Cc1ccc(NS(=O)(=O)c2ccc(N)cc2)cc1Cl`, the solubility (mole fraction) is 2.25e-07.

The compound `Nc1ccc(S(=O)(=O)Nc2cc(Cl)c(Cl)cc2Cl)cc1` gave a solubility (mole fraction) of 3.07e-07.

Compound `Cc1ccc(NS(=O)(=O)c2ccc(N)cc2)c(Cl)c1` came in with a solubility (mole fraction) of 1.18e-06.

Take `Nc1ccc(S(=O)(=O)Nc2ccc(Cl)cc2)c(Cl)c1`: the solubility (mole fraction) worked out at 6.86e-07.

`Nc1ccc(S(=O)(=O)Nc2ccc(Cl)cc2)cc1`: the solubility (mole fraction) worked out at 2.02e-06.

For `Nc1ccc(S(=O)(=O)Nc2ccc(Cl)c(Cl)c2)cc1`, the solubility (mole fraction) is 3.26e-07.

`Cc1cc(N)ccc1S(=O)(=O)Nc1ccccc1[N+](=O)[O-]` showed a solubility (mole fraction) of 8.02e-07.

`Nc1ccc(S(=O)(=O)Nc2ccccc2Cl)c(Cl)c1` yielded a solubility (mole fraction) of 1.55e-07.

Still in this series, the particulars now being: in water, 315.15 K.
Consider `Cc1cc(N)ccc1S(=O)(=O)Nc1ccc(Cl)cc1`, for which the solubility (mole fraction) was 1.68e-06.

Compound `Cc1cc(N)ccc1S(=O)(=O)Nc1ccccc1Cl` registered a solubility (mole fraction) of 2.32e-07.

`Nc1ccc(S(=O)(=O)Nc2cc(Cl)ccc2Cl)cc1`: the solubility (mole fraction) is 1.24e-06.

`Cc1cc(Cl)ccc1NS(=O)(=O)c1ccc(N)cc1` had a solubility (mole fraction) of 3.74e-06.

Consider `Cc1ccc(Cl)cc1NS(=O)(=O)c1ccc(N)cc1`, for which the solubility (mole fraction) stood at 2.12e-06.

For `Cc1ccc(NS(=O)(=O)c2ccc(N)cc2)cc1Cl`, the solubility (mole fraction) was found to be 2.56e-07.

`Nc1ccc(S(=O)(=O)Nc2cc(Cl)c(Cl)cc2Cl)cc1`: the solubility (mole fraction) came to 3.33e-07.

The compound `Cc1ccc(NS(=O)(=O)c2ccc(N)cc2)c(Cl)c1` gave a solubility (mole fraction) of 1.45e-06.

`Nc1ccc(S(=O)(=O)Nc2ccc(Cl)cc2)c(Cl)c1` yielded a solubility (mole fraction) of 8.12e-07.

In turn, `Nc1ccc(S(=O)(=O)Nc2ccc(Cl)cc2)cc1` gave a solubility (mole fraction) of 2.84e-06.

With `Nc1ccc(S(=O)(=O)Nc2ccc(Cl)c(Cl)c2)cc1`, the solubility (mole fraction) came to 3.89e-07.

`Cc1cc(N)ccc1S(=O)(=O)Nc1ccccc1[N+](=O)[O-]` displayed a solubility (mole fraction) of 9.35e-07.

For `Nc1ccc(S(=O)(=O)Nc2ccccc2Cl)c(Cl)c1`, the solubility (mole fraction) is 1.75e-07.
